Test results reported in patent US10385005B2, “Compositions and methods for glucose transport inhibition” (OHIO UNIVERSITY, priority 2010, dated 2019).
“And” between values parts separate entries of the source, which are not always exact repeats. Identical values can stand only once. Marks after values point to notes of the source that are not given here.

Tests used:
H1299 cells = assay: Standard glucose uptake assay, H1299; format: cell-based, human; conditions: for Glucose transport inhibition (%) / level of glucose transport inhibition (in words): H1299; for % inhibition of basal glucose transport: Table 3, 30 μM in H1299 cells
Procedure: (§1) Briefly, H1299 cancer cells were treated with or without the compounds (30 μM) in triplicates for 10 min before the glucose uptake assay. Cellular glucose uptake was measured by incubating cells in the glucose-free KRP buffer with […] [^3H]2-deoxyglucose (specific activity, 40 Ci/mmol) for 30 min in the absence or presence of compounds. After the cells were washed with ice-cold PBS and lysed by 0.2 N NaOH, the cell lysates were transferred to scintillation counting vials and the radioactivity in the cell lysates was quantified by liquid scintillation counting. Cell growth measurements were performed using an MTT assay in hexads in a 96-well tissue culture plate with 5,000 cells plated in each well. The cells were incubated in presence or absence of the compounds (30 μM) for 48 h. After incubation, cell viabilities were assayed using a 96-well SPECTRAMAX™ absorbance/fluorescence plate reader (Molecular Devices).
Cancer cells are treated with or without the compounds for 10 min before the glucose uptake assay. Cellular glucose uptake will be measured by incubating cells in glucose-free RPMI 1640 with […] [^3H]2-deoxyglucose (specific activity, 40 Ci/mmol) for 30 min in the absence and presence of compounds. After the cells are washed with ice-cold PBS and lysed, the cell lysates will be transferred to scintillation counting vials and the radioactivity in the cell lysates is quantified by liquid scintillation counting.

H1299 lung cancer cells = assay: MTT cell growth / viability assay, H1299; format: cell-based, human
Procedure: as §1
MTT assays are performed by the following well-established method. In a 96 well tissue culture plate 10,000 cells are plated in each well. The cells are incubated in presence or absence of the compounds for 18 h. 3-(4,5-Dimethylthiazol-2-yl)-2,5-diphenyltetrazolium bromide (MTT) is dissolved in PBS (10 mg/ml) and filter sterilized. Three hours before the end of the incubation 20 μL of MTT solution is added to each well containing cells in a 96-well plate. The plate is incubated in an incubator at 37° C. for 3 h. Media is aspirated gently and 200 μL of DMSO is added to each well to dissolve formazan crystals. The absorbance is measured at 550 nm for cell viability.

[1] = HPLC analysis of compound stability in human serum; format: in vitro ADME; conditions: for Compound concentration (%) after incubation with serum: human serum, 37 C
Procedure: A total of 2.5 ml of compound solution was added to 22.5 ml of human serum and the mixture was incubated at 37 C for various times. The final concentration of the compound in serum was 6.8 mM. After incubation, […] of acetonitrile was added to the mixture, centrifuged to remove proteins before HPLC analysis. The relative concentration of samples at 0 h (in serum but without incubation) was arbitrarily assigned a value of 100% and all other samples were compared to the 0 h samples.

[2] = Table 2, 30 μM, untreated cells 0% inhibition

Compound	Glucose transport inhibition (%) (H1299 cells; Table 12)	Glucose transport inhibition (%) (H1299 cells; [2])	Cell growth inhibition (%) (H1299 lung cancer cells; Table 2, 30 μM, 48 h)	other results
COc1cccc(OCc2cccc(O)c2)c1OCc1cccc(O)c1 [WZB-132]	60.0 ± 7.7%			Cell growth inhibition (%) (H1299 lung cancer cells; Table 12): 6.0 ± 2.2%
COc1cccc(C(=O)Oc2cccc(OC)c2OC(=O)c2cccc(OC)c2)c1 [Compound 7d]		32.1 ± 0.2%	18.3 ± 4.3%	
O=C(Oc1ccc(Cl)cc1OC(=O)c1cc(O)cc(O)c1)c1cc(O)cc(O)c1 [Compound 1f]		95.2 ± 0.2%	38.8 ± 6.9%	% inhibition of basal glucose transport (H1299 cells; listed as WZB-114): 96.1 ± 0.1%
COc1cc(C(=O)Oc2cccc(F)c2OC(=O)c2cc(OC)c(OC)c(OC)c2)cc(OC)c1OC [Compound 7c]		7.9 ± 2.6%	19.6 ± 3.6%	level of glucose transport inhibition (in words) (H1299 cells; 30 μM, listed as WZB-101): dramatically decreased levels of activity
Oc1cccc(COc2ccc(Cl)c(OCc3cccc(O)c3)c2)c1 [WZB-141]	96.5±0.5%			Cell growth inhibition (%) (H1299 lung cancer cells; Table 12): 39.5±1.8%; Compound concentration (%) after incubation with serum ([1]; 0 h (arbitrarily assigned 100%)): 100%; Compound concentration (%) after incubation with serum ([1]; 4 h): 103.5%; Compound concentration (%) after incubation with serum ([1]; 24 h): 109.7%; Compound concentration (%) after incubation with serum ([1]; 48 h): 87.4%; relative stability in serum ([1]; ether vs ester bond-containing compounds): much more stable in serum than ester bond-containing compounds WZB-115 and WZB-117; Compound concentration (%) after incubation with serum ([1]; l h): 100.3%
O=C(Nc1ccc(F)cc1NC(=O)c1cccc(O)c1)c1cccc(O)c1 [WZB-124]	89.7 ± 2.5^b %			Cell growth inhibition (%) (H1299 lung cancer cells; Table 12): 5.7 ± 2.1%
CN(Cc1cccc(O)c1)c1ccc(F)cc1N(C)Cc1cccc(O)c1 [WZB-144]	78.2±1.4%			Cell growth inhibition (%) (H1299 lung cancer cells; Table 12): 14.5±7.6%
COc1cccc(OC(=O)c2ccc(O)c(O)c2)c1OC(=O)c1ccc(O)c(O)c1 [Compound 1h]		0%	32.4 ± 2.7%	level of glucose transport inhibition (in words) (H1299 cells; 30 μM): little to no inhibition
O=C(Oc1ccc(Cl)cc1OC(=O)c1cc(O)c(O)c(O)c1)c1cc(O)c(O)c(O)c1 [Compound 1b]		84.4 ± 0.1%		
O=C(Oc1cccc(F)c1OC(=O)c1ccccc1O)c1ccccc1O [Compound 1m]		51.0 ± 6.6%		
O=C(Nc1ccc(Cl)cc1NC(=O)c1cccc(O)c1)c1cccc(O)c1 [WZB-125]	83.7 ± 0.7%			Cell growth inhibition (%) (H1299 lung cancer cells; Table 12): 5.9 ± 1.4%
COc1cc(C(=O)Oc2ccc(Cl)cc2OC(=O)c2cc(OC)c(OC)c(OC)c2)cc(OC)c1OC [Compound 7b]		1.7 ± 1.1%	20.6 ± 2.1%	level of glucose transport inhibition (in words) (H1299 cells; 30 μM): dramatically decreased
CN(C(=O)c1cccc(O)c1)c1ccc(Cl)cc1N(C)C(=O)c1cccc(O)c1 [WZB-142]	82.7 ± 6.8%			Cell growth inhibition (%) (H1299 lung cancer cells; Table 12): 14.2 ± 9.0%
O=C(Oc1cccc(OC(=O)c2cc(O)cc(O)c2)c1OC(=O)c1cc(O)cc(O)c1)c1cc(O)cc(O)c1 [Compound 2b]		98.7 ± 0.8%	41.0 ± 5.5%	% inhibition of basal glucose transport (H1299 cells; listed as WZB-111): 99.5 ± 0.3%
COc1cccc(OC(=O)c2cc(O)cc(O)c2)c1OC(=O)c1cc(O)cc(O)c1 [Compound 1e]		69.4 ± 3.0%		level of glucose transport inhibition (in words) (H1299 cells; 30 μM): little to no inhibition
O=C(Oc1ccc(Cl)cc1OC(=O)c1ccc(O)c(O)c1)c1ccc(O)c(O)c1 [Compound 1i]		94.4 ± 0.4%	45.2 ± 7.6%	
COc1cc(C(=O)Oc2cccc(OC)c2OC(=O)c2cc(OC)c(OC)c(OC)c2)cc(OC)c1OC [Compound 7a]		33.3 ± 3.6%	22.2 ± 3.4%	level of glucose transport inhibition (in words) (H1299 cells; 30 μM): dramatically decreased

Compound	Glucose transport inhibition (%) (H1299 cells; Table 12)	Glucose transport inhibition (%) (H1299 cells; [2])	Cell growth inhibition (%) (H1299 lung cancer cells; Table 2, 30 μM, 48 h)	other results
COc1cccc(OC(=O)c2ccccc2O)c1OC(=O)c1ccccc1O [Compound 1k]		50.5 ± 7.6%	18.0 ± 4.4%	
O=C(Oc1ccc(Cl)cc1OC(=O)c1ccccc1O)c1ccccc1O [Compound 1l]		51.6 ± 5.9%	26.6 ± 2.3%	
O=C(Oc1cccc(OC(=O)c2ccc(O)c(O)c2)c1OC(=O)c1ccc(O)c(O)c1)c1ccc(O)c(O)c1 [Compound 2c]		94.7 ± 0.4%	42.2 ± 6.1%	
O=C(Oc1cccc(F)c1OC(=O)c1ccc(O)cc1)c1ccc(O)cc1 [Compound 1p]		92.6 ± 0.7%	35.9 ± 4.7%	
Oc1cccc(CNc2ccc(F)cc2NCc2cccc(O)c2)c1 [WZB-139]	39.2 ± 0.8%			
O=C(Oc1ccccc1OC(=O)c1ccc(O)cc1)c1ccc(O)cc1 [Compound 1q]		57.5 ± 2.9%		
O=C(Oc1cccc(OC(=O)c2ccccc2O)c1OC(=O)c1ccccc1O)c1ccccc1O [Compound 2d]		74.7 ± 2.0%		
COc1cccc(OC(=O)c2ccc(O)cc2)c1OC(=O)c1ccc(O)cc1 [Compound 1n]		86.5 ± 2.8%	36.6 ± 6.7%	
O=C(Oc1cccc(F)c1OC(=O)c1ccc(O)c(O)c1)c1ccc(O)c(O)c1 [Compound 1j]		88.7 ± 1.8%	41.5 ± 5.5%	
O=C(Oc1ccc(Cl)cc1OC(=O)c1ccc(O)cc1)c1ccc(O)cc1 [Compound 1o]		79.0 ± 8.7%		
Oc1cccc(CNc2ccc(Cl)cc2NCc2cccc(O)c2)c1 [WZB-138]	52.2 ± 9.7%			
O=C(Oc1cccc(F)c1OC(=O)c1cc(O)cc(O)c1)c1cc(O)cc(O)c1 [Compound 1g]		94.0 ± 0.8%	35.0 ± 7.6%	% inhibition of basal glucose transport (H1299 cells; listed as WZB-113): 96.7 ± 1.6%
CN(Cc1cccc(O)c1)c1ccc(Cl)cc1N(C)Cc1cccc(O)c1 [WZB-145]	73.2 ± 3.8%			Cell growth inhibition (%) (H1299 lung cancer cells; Table 12): 38.2 ± 6.6%
CN(C(=O)c1cccc(O)c1)c1ccc(F)cc1N(C)C(=O)c1cccc(O)c1 [WZB-143]	85.7 ± 3.6%			Cell growth inhibition (%) (H1299 lung cancer cells; Table 12): 31.1 ± 7.9%
O=C(Oc1cccc(F)c1OC(=O)c1cc(O)c(O)c(O)c1)c1cc(O)c(O)c(O)c1 [Compound 1c]		81.1 ± 1.1%		% inhibition of basal glucose transport (H1299 cells): 81.0 ± 1.1%
O=C(Oc1ccccc1OC(=O)c1cc(O)c(O)c(O)c1)c1cc(O)c(O)c(O)c1 [Compound 1d]		32.1 ± 6.2%		level of glucose transport inhibition (in words) (H1299 cells; 30 μM): lower levels of inhibition relative to 1a and 2a
Oc1cccc(COc2cccc(F)c2OCc2cccc(O)c2)c1 [WZB-134]	92.5±2.2% and 92.6 ± 2.2%			Cell growth inhibition (%) (H1299 lung cancer cells; Table 12): 10.6±2.0%
